Tests used:
[1] = species: Sus scrofa; experiment: Activity at pig kidney LAP after 40 mins by Michaelis-Menten equation; type: tissue-based
[2] = test system: HCT-116; experiment: Drug uptake in human HCT116 cells at 20 uM after 20 mins by DAPI staining based microscopic analysis; type: ADME, cell-based; settings: hct-116, 20 min
[3] = test system: HCT-116; experiment: Drug uptake in human HCT116 cells at 20 uM after 20 mins by DAPI staining based microscopic analysis in presence of bestatin; type: ADME, cell-based; settings: hct-116, 20 min
[4] = Competitive inhibition of pig kidney LAP activity using N-(6-Methoxypyridine-3-yl), (S)-2-amino-4-methylpentanamide as substrate after 10 mins by Michaelis-Menten equation
[5] = Competitive inhibition of pig kidney LAP activity using l-Leucine-p-nitroanilide as substrate after 10 mins by Michaelis-Menten equation
[6] = Competitive inhibition of pig kidney LAP activity using DCDHF-Leu as substrate after 10 mins by Michaelis-Menten equation

Compound | Km [1] | Vmax [1] | other results
COc1ccc(NC(=O)[C@@H](N)CC(C)C)cn1 | 65 µM | 7.7 µmol/min/mg | 
CC1(C)OC(=C(C#N)C#N)C(C#N)=C1/C=C/c1ccc(N)cc1 |  |  | Drug uptake [2]: Active
CC(C)C[C@H](N)C(=O)Nc1ccc(/C=C/C2=C(C#N)C(=C(C#N)C#N)OC2(C)C)cc1 | 8.87 µM | 6.64 µmol/min/mg | fold change (FC) [2]: 6; Drug uptake [3]: Not Active
CC(C)C[C@H](NC(=O)[C@@H](O)[C@H](N)Cc1ccccc1)C(=O)O [UBENIMEX] |  |  | IC50 [4]: 7 µM; IC50 [5]: 25 µM; IC50 [6]: 4.41 µM
CC(C)C[C@H](N)C(=O)Nc1ccc([N+](=O)[O-])cc1 | 3000 µM | 3.9 µmol/min/mg | 
